ChEMBL document CHEMBL3259758, “Thiazolopyridine ureas as novel antitubercular agents acting through inhibition of DNA Gyrase B” (J Med Chem, 2013)

Assays:
Plasma = details: human
physchem = details: octanol/water, pH 7.4
[1] = AUC in po dosed Balb/c mouse infected with Mycobacterium tuberculosis H37Rv administered via gavage for 10 days starting 3 days post-infection measured at day 9 of drug dosing; format: ADME, organism-based; details: plasma

Row | Compound | Cp(f) (Plasma) | logD (physchem) | AUC [1]
1 | CCNC(=O)Nc1nc2cc(-c3ccn(CCOC)c(=O)c3)c(N[C@H]3CCOC3)nc2s1 | 13 µM | – | –
2 | C=CCNC(=O)Nc1nc2cc(-c3cccnc3)ccc2s1 | 0.7 µM | 3.9 | –
3 | C=CCNC(=O)Nc1nc2cc(-c3cccnc3)cnc2s1 | 3.2 µM | 2.9 | –
4 | CCNC(=O)Nc1nc2cc(-c3cccnc3)c(N[C@H]3CCOC3)nc2s1 | 28 µM | 2 | 200 µg·h/mL
5 | CCNC(=O)Nc1nc2cc(-c3cccnc3)c(NCC3CCOC3)nc2s1 (stereo not drawn) | 40 µM | 2.7 | –
6 | CCNC(=O)Nc1nc2cc(-c3ccc(F)nc3)c(OCC3CCOC3)nc2s1 (stereo not drawn) | 0.6 µM | – | –
7 | CCNC(=O)Nc1nc2cc(-c3ccc(C)nc3)c(OCC3CCOC3)nc2s1 (stereo not drawn) | 0.9 µM | – | –
8 | CCNC(=O)Nc1nc2cc(-c3cncc(OC)c3)c(OCC3CCOC3)nc2s1 (stereo not drawn) | 2.5 µM | – | –
9 | CCNC(=O)Nc1nc2cc(-c3cnc(C)nc3)c(OCC3CCOC3)nc2s1 (stereo not drawn) | 6 µM | – | –
10 | CCNC(=O)Nc1nc2cc(-c3ccc(C#N)nc3)c(NC3CCOCC3)nc2s1 | 6 µM | – | –
11 | CCNC(=O)Nc1nc2cc(-c3cncc(OCCN(C)C)c3)c(OCC3CCOC3)nc2s1 (stereo not drawn) | 11 µM | – | –
12 | CCNC(=O)Nc1nc2cc(-c3cncc(OCCN4CCOCC4)c3)c(OCC3CCOC3)nc2s1 (stereo not drawn) | 10 µM | – | –
13 | CCNC(=O)Nc1nc2cc(-c3ccn(C)c(=O)c3)c(OCC3CCOC3)nc2s1 (stereo not drawn) | 5 µM | – | –
14 | CCNC(=O)Nc1nc2cc(-c3cc(C(C)C)n(C)c(=O)c3)c(OCC3CCOC3)nc2s1 (stereo not drawn) | 4 µM | – | –
15 | CCNC(=O)Nc1nc2cc(-c3ccn(CCOC)c(=O)c3)c(OCC3CCOC3)nc2s1 (stereo not drawn) | 7 µM | – | –
16 | CCNC(=O)Nc1nc2cc(-c3ccn(CCOC)c(=O)c3)c(O[C@@H]3CCOC3)nc2s1 | 11 µM | – | –
17 | CCNC(=O)Nc1nc2cc(-c3ccn(CCN(C)C)c(=O)c3)c(OCC3CCOC3)nc2s1 (stereo not drawn) | 5 µM | – | –
18 | CCNC(=O)Nc1nc2cc(-c3ccn(CCN4CCOCC4)c(=O)c3)c(OCC3CCOC3)nc2s1 (stereo not drawn) | 5 µM | – | –
